Values quoted from earlier work in publication PMC9632963, “Preclinical characterization and phase I clinical trial of CT053PTSA targets MET, AXL, and VEGFR2 in patients with advanced solid tumors” (Frontiers in Immunology, 2022).
Where two headings read alike, the source gives them in different places.

Tests used:
[1] = parameters: method as in PMID 27734291; conditions: cited from earlier work
[2] = system: Japanese patients with NSCLC; parameters: method as in PMID 30718102; conditions: cited from earlier work
patients = system: patients; parameters: method as in PMID 30833489; conditions: 20/50 patients; cited from earlier work
MET [3] = system: MET; parameters: method as in PMID 18089725; conditions: NCI-H69 cells; read-out: IC50, phosphorylation of MET; cited from earlier work
MET [4] = system: MET; parameters: method as in PMID 18089725; conditions: HOP92 cells; read-out: IC50, phosphorylation of MET; cited from earlier work

COc1cc2nccc(Oc3ccc(NC(=O)C4(C(=O)Nc5ccc(F)cc5)CC4)cc3)c2cc1OC [cabozantinib]
half-life [1]: 108 to 126 h | median Tmax [1]: 4 h | patients with ≥ grade 3 AEs ([2]; 16/23 patients): 70% | AE: diarrhea [2]: 78% | AE: hypertension [2]: 87% | AE: increased alanine aminotransferase [2]: 95% | AE: increased aspartate aminotransferase [2]: 95% | AE: palmar-plantar erythrodysesthesia [2]: 100%

Cc1ccc(C(=O)Nc2ccc(Oc3cc4cnn(C)c4cc3-c3cn[nH]c3)c(F)c2)c(=O)n1-c1ccc(F)cc1 [merestinib]
patients with ≥ grade 3 TRAEs (patients): 40%

C[C@@H](Oc1cc(-c2cnn(C3CCNCC3)c2)cnc1N)c1c(Cl)ccc(F)c1Cl [crizotinib]
IC50 (MET [3]): […] | IC50 (MET [4]): 16 nM
